# Where two headings read alike, the source gives them in different places.
# Key:
# [1] = target: Gal4 DNA binding domain fused to the LBD of LXRα in HEK293 cells (Homo sapiens (Human), UniProt Q13133); test: LXR luciferase transcriptional reporter gene assay, agonist mode, LXRα; format: cell-based; conditions: for EC50: read-out: Cell LXRα EC50
# [2] = target: LXR β LBD protein (Homo sapiens (Human), UniProt P55055); test: biochemical; format: binding; conditions: read-out: LXRβ Binding Ki
# [3] = target: LXR α LBD protein (Homo sapiens (Human), UniProt Q13133); test: LXR α radioligand binding assay (SPA, competition with [3H]TO901317); conditions: read-out: LXRα Binding Ki
# [4] = target: Gal4 DNA binding domain fused to the LBD of LXRβ in HEK293 cells (Homo sapiens (Human), UniProt P55055); test: cell-based
# Chain of Gal4 DNA binding domain fused to the LBD of LXRβ in HEK293 cells (P55055 222-460 limits assumed): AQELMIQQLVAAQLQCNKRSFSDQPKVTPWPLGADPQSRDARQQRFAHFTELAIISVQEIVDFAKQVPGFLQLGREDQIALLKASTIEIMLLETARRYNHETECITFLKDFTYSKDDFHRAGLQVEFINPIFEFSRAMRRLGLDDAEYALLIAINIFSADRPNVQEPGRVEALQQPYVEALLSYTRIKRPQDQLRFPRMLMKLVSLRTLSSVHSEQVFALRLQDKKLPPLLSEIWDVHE
# Chain of LXR α LBD protein (Q13133 209-447): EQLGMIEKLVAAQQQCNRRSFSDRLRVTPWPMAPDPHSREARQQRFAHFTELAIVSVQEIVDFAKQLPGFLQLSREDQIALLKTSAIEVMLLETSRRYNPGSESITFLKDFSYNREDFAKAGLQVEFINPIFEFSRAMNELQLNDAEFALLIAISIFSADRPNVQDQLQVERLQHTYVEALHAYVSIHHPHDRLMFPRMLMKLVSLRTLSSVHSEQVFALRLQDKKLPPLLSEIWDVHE
# Chain of Gal4 DNA binding domain fused to the LBD of LXRα in HEK293 cells (Q13133 209-447): as above
# Chain of LXR β LBD protein (P55055 222-460 limits assumed): as the sequence (P55055 222-460 limits assumed) above
Structure (SMILES),Cell LXRα efficacy [1],EC50 [1] [nM],Ki [2] [nM],Ki [3] [nM],Cell LXRβ efficacy [4],EC50 [4] [nM],Cell LXRβ efficacy ([4]; agonist mode),EC50 ([1]; agonist mode) [nM]
"CC(C)[C@@H]1CN(c2ccc(F)c(S(C)(=O)=O)c2)CCN1c1nc2ncccc2s1 [7-59, (R)-2-(4-(4-fluoro-3-(methylsulfonyl)phenyl)-2-isopropylpiperazin-1-yl)thiazolo[4,5-b]pyridine]",827 (84) %,827,39,281,289 (83) %,289,,
"COC(=O)c1cnc(N2CCN(c3ccc(F)c(S(C)(=O)=O)c3)CC2C(C)(C)C)nc1C(F)(F)F (centres unmarked) [9-5, methyl 2-(2-(tert-butyl)-4-(4-fluoro-3-(methylsulfonyl)phenyl)piperazin-1-yl)-4-(trifluoromethyl)pyrimidine-5-carboxylate]",504 (46) %,504,9,41,,82,82 (21) %,
"CNS(=O)(=O)c1cc(N2CCN(c3ncc(C(=O)OC)c(C(F)(F)F)n3)[C@H](C(C)C)C2)ccc1F [9-6, methyl (R)-2-(4-(4-fluoro-3-(N-methylsulfamoyl)phenyl)-2-isopropylpiperazin-1-yl)-4-(trifluoromethyl)pyrimidine-5-carboxylate]",503 (59) %,,8,101,74 (41) %,74,,503
"CCOC(=O)c1cnc(N2CCN(c3cccc(S(C)(=O)=O)c3)C[C@H]2c2nc(C)cs2)nc1C(F)(F)F [9-8, ethyl (S)-2-(4-(3-(methylsulfonyl)phenyl)-2-(4-methylthiazol-2-yl)piperazin-1-yl)-4-(trifluoromethyl)pyrimidine-5-carboxylate]",,,659,2340,,2470,2469 (14) %,> 20000
"CCOC(=O)c1cnc(N2CCN(c3ccc(-c4nnc(C)o4)c(S(C)(=O)=O)c3)C[C@H]2C(C)C)nc1C(F)(F)F [9-11, ethyl (R)-2-(2-isopropyl-4-(4-(5-methyl-1,3,4-oxadiazol-2-yl)-3-(methylsulfonyl)phenyl)piperazin-1-yl)-4-(trifluoromethyl)pyrimidine-5-carboxylate]",,> 20000,839,2140,,869,869 (9) %,
"CCOC(=O)c1cnc(N2CCN(c3ccc(-c4nnc(C)s4)c(S(C)(=O)=O)c3)C[C@H]2C(C)C)nc1C(F)(F)F [9-13, ethyl (R)-2-(2-isopropyl-4-(4-(5-methyl-1,3,4-thiadiazol-2-yl)-3-(methylsulfonyl)phenyl)piperazin-1-yl)-4-(trifluoromethyl)pyrimidine-5-carboxylate]",2862 (21) %,,171,703,,1200,1204 (34) %,2860
"CC(C)[C@@H]1CN(c2ccc(F)c(S(N)(=O)=O)c2)CCN1c1ncc(C(C)(C)O)c(C(F)(F)F)n1 [10-2, (R)-2-fluoro-5-(4-(5-(2-hydroxypropan-2-yl)-4-(trifluoromethyl)pyrimidin-2-yl)-3-isopropylpiperazin-1-yl)benzenesulfonamide]",2692 (45) %,,34,469,,475,475 (39) %,2690
"CC(C)(O)c1cnc(N2CCN(c3ccc(F)c(S(C)(=O)=O)c3)CC2C(C)(C)C)nc1C(F)(F)F (centres unmarked) [10-4, 2-(2-(2-(tert-butyl)-4-(4-fluoro-3-(methylsulfonyl)phenyl)piperazin-1-yl)-4-(trifluoromethyl)pyrimidin-5-yl)propan-2-ol]",1034 (28) %,1030,6,59,,128,128 (13) %,
"CC(C)[C@H]1CN(c2ccc(CO)c(S(C)(=O)=O)c2)CCN1c1ncc(C(C)(C)O)c(C(F)(F)F)n1 [10-5, (S)-2-(2-(4-(4-(hydroxymethyl)-3-(methylsulfonyl)phenyl)-2-isopropylpiperazin-1-yl)-4-(trifluoromethyl)pyrimidin-5-yl)propan-2-ol]",3627 (67) %,,230,1280,,980,980 (58) %,3630
"CC(C)[C@@H]1CN(c2ccc(CO)c(S(C)(=O)=O)c2)CCN1c1ncc(C(C)(C)O)c(C(F)(F)F)n1 [10-7, (R)-2-(2-(4-(4-(hydroxymethyl)-3-(methylsulfonyl)phenyl)-2-isopropylpiperazin-1-yl)-4-(trifluoromethyl)pyrimidin-5-yl)propan-2-ol]",1520 (51) %,,18,261,,235,235 (40) %,1520
"CC(C)[C@@H]1CN(c2ccc(F)c(S(C)(=O)=O)c2)CCN1c1nc(C(F)(F)F)c(C(C)(C)O)o1 [10-8, (R)-2-(2-(4-(4-fluoro-3-(methylsulfonyl)phenyl)-2-isopropylpiperazin-1-yl)-4-(trifluoromethyl)oxazol-5-yl)propan-2-ol]",4655 (96) %,4660,132,2190,,901,901 (76) %,
"CC(C)(O)c1cc(CN2CCN(c3cccc(S(C)(=O)=O)c3)C[C@H]2c2ccccc2)ccc1C(F)(F)F [10-14, (R)-2-(5-((4-(3-(methylsulfonyl)phenyl)-2-phenylpiperazin-1-yl)methyl)-2-(trifluoromethyl)phenyl)propan-2-ol]",,,1480,4560,,> 20000,,> 20000
"CC(C)[C@@H]1CN(c2ccc(F)c(S(N)(=O)=O)c2)CCN1c1ncc(CO)c(C(F)(F)F)n1 [11-2, (R)-2-fluoro-5-(4-(5-(hydroxymethyl)-4-(trifluoromethyl)pyrimidin-2-yl)-3-isopropylpiperazin-1-yl)benzenesulfonamide]",1336 (57) %,1340,35,357,,243,243 (46) %,
"CC(C)[C@@H]1CN(c2ccc(Cl)c(S(C)(=O)=O)c2)CCN1c1ncc(CO)c(C(F)(F)F)n1 [11-3, (R)-(2-(4-(4-chloro-3-(methylsulfonyl)phenyl)-2-isopropylpiperazin-1-yl)-4-(trifluoromethyl)pyrimidin-5-yl)methanol]",1014 (62) %,1010,6,146,,95,95 (44) %,
"CS(=O)(=O)c1cc(N2CCN(c3ncc(CO)c(C(F)(F)F)n3)[C@H](c3ccc(F)cc3)C2)ccc1F [11-7, (R)-(2-(4-(4-fluoro-3-(methylsulfonyl)phenyl)-2-(4-fluorophenyl)piperazin-1-yl)-4-(trifluoromethyl)pyrimidin-5-yl)methanol]",2240 (13) %,,85,1160,,315,315 (14) %,2240

# Reference: US10144715B2, “Piperazine derivatives as liver X receptor modulators” (priority 2014, dated 2018)
